Experimental data reported in PubChem BioAssay (NCI).
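The compound was tested at five concentrations on cells cultured in 96-well plates, with a 48-hour exposure period. TGI is the concentration that stops growth completely.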

Assays:
Experiment in all cases: DTP human tumour cell line panel, 48 h
[1] = test system: 786-0 renal
[2] = test system: A549 NSCLC
[3] = test system: ACHN renal
[4] = test system: CCRF-CEM leukemia
[5] = test system: HCT-116 colon
[6] = test system: HT29 colon
[7] = test system: IGROV1 ovarian
[8] = test system: K-562 leukemia
[9] = test system: KM12 colon
[10] = test system: LOX IMVI melanoma
[11] = test system: M14 melanoma
[12] = test system: MOLT-4 leukemia
[13] = test system: NCI/ADR-RES ovarian
[14] = test system: OVCAR-3 ovarian
[15] = test system: OVCAR-8 ovarian
[16] = test system: PC-3 prostate
[17] = test system: SK-MEL-28 melanoma
[18] = test system: SR leukemia
[19] = test system: SW-620 colon
[20] = test system: U251 CNS

| SMILES | TGI [1] [µM] | TGI [2] [µM] | TGI [3] [µM] | TGI [4] [µM] | TGI [5] [µM] | TGI [6] [µM] | TGI [7] [µM] | TGI [8] [µM] | TGI [9] [µM] | TGI [10] [µM] | TGI [11] [µM] | TGI [12] [µM] | TGI [13] [µM] | TGI [14] [µM] | TGI [15] [µM] | TGI [16] [µM] | TGI [17] [µM] | TGI [18] [µM] | TGI [19] [µM] | TGI [20] [µM] |
| --- | --- | --- | --- | --- | --- | --- | --- | --- | --- | --- | --- | --- | --- | --- | --- | --- | --- | --- | --- | --- |
| COC1CC(NC(=O)C(F)(F)F)C(OC(C)=O)C(C)O1 (stereo not given) | > 100 | > 100 | > 100 | > 100 | > 100 | > 100 | > 100 | > 100 | > 100 | > 100 | > 100 | > 100 | > 100 | > 100 | > 100 | > 100 | > 100 | > 100 | > 100 | > 100 |
| CN1CCN(CCCCN2c3ccccc3Sc3cc(N=[N+]=[N-])ccc32)CC1 | 3.03 | 3.93 | 4.56 | 4.66 | 2.98 | 3.03 | 4.26 | 3.04 | 3.48 | 3.22 | 3.28 | 4.12 | 7.86 | 6.53 | 3.85 | 3.57 | 3.52 | > 100 | 3.47 | 7.83 |
| COc1cc(Nc2nc3ccc(C(F)(F)F)cc3nc2C(=O)O)cc(OC)c1OC | 74.6 | > 100 | 51.5 | > 100 | 34.9 | 63.3 | 66.6 | > 100 | 59.4 | 35.6 | 93.3 | > 100 | 45.5 | 93.5 | 72.1 | 56.1 | 80.3 | > 100 | 59.9 | 36.7 |
| C[Si](C)(OCCS(=O)(=O)O)OC(=C1S(=O)(=O)OCCOS1(=O)=O)c1cccc2ccccc12 | > 100 | > 100 | > 100 | > 100 | > 100 | > 100 | > 100 | > 100 | > 100 | > 100 | > 100 | > 100 | > 100 | > 100 | > 100 | > 100 | > 100 | > 100 | > 100 | > 100 |
| C/C(=N\NC(=S)N(C)CCN(C)C(=S)N/N=C(\C)c1ccccn1)c1ccccn1 | > 100 | 13.8 | 11.4 | 12.1 | 11.5 | 24.4 | 3.96 | 29.1 | 14.3 | 22.6 | > 100 | 46.3 | 2.02 | 9.53 | 7.32 | 18.8 | 19.8 | 3.71 | 22.9 | 18.9 |
| O=c1c2cc([N+](=O)[O-])ccc2n2n1CCCC2 | > 100 | > 100 | > 100 | > 100 | > 100 | > 100 | > 100 | > 100 | > 100 | > 100 | > 100 | > 100 | > 100 | > 100 | > 100 | > 100 | > 100 | > 100 | > 100 | > 100 |
